ChEMBL document CHEMBL1146377, “Antitrypanosomal activity of quaternary naphthalimide derivatives” (Bioorg Med Chem Lett, 2007)

Legend:
[1] = tested on: Trypanosoma brucei brucei; test: Antitrypanosomal activity against Trypanosoma brucei brucei after 48 hrs; type: functional, organism-based
[2] = Cytotoxicity against J774.1 cells after 48 hrs; type: cell-based; settings: Mus musculus, J774.1, 48 h

Compound	IC50 [1]	IC50 [2]
CC(C)(CN1C(=O)c2cccc3cc(N)cc(c23)C1=O)C[N+](C)(C)CCCCCC[N+](C)(C)CCCN1C(=O)c2ccccc2C1=O	24.2 µM	> 100 µM
CC(C)(CN1C(=O)c2cccc3cccc(c23)C1=O)C[N+](C)(C)CCCCCC[N+](C)(C)CCCN1C(=O)c2cccc3cccc(c23)C1=O	4.27 µM	> 100 µM
CC(C)(CN1C(=O)c2cccc3cc([N+](=O)[O-])cc(c23)C1=O)C[N+](C)(C)CCCCCC[N+](C)(C)CCCN1C(=O)c2ccccc2C1=O	22.9 µM	> 100 µM
CC(C)(CN1C(=O)c2cccc3ccc(N)c(c23)C1=O)C[N+](C)(C)CCCCCC[N+](C)(C)CCCN1C(=O)c2ccccc2C1=O	5.95 µM	> 100 µM
CC(C)(CN1C(=O)c2cccc3ccc([N+](=O)[O-])c(c23)C1=O)C[N+](C)(C)CCCCCC[N+](C)(C)CCCN1C(=O)c2ccccc2C1=O	8.78 µM	> 100 µM
Cc1ccc2c(c1)C(=O)N(CCC[N+](C)(C)CCCCCC[N+](C)(C)CC(C)(C)CN1C(=O)c3cccc4cccc(c34)C1=O)C2=O	4.62 µM	> 100 µM
Cc1ccc2c(c1)C(=O)N(CCC[N+](C)(C)CCCCCC[N+](C)(C)CCCN1C(=O)c3cccc4cccc(c34)C1=O)C2=O	27.9 µM	> 100 µM
NCCC[C@](N)(C(=O)O)C(F)F [EFLORNITHINE]	22.9 µM	

The next molecules have a lower IC50 [1] than those just listed; values first:

IC50 [1]	Compound	IC50 [2]
1.2 µM	CCC[N+](C)(C)CC(C)(C)CN1C(=O)c2cccc3cccc(c23)C1=O	> 100 µM
1.17 µM	CC(C)(CN1C(=O)c2cccc3cccc(c23)C1=O)C[N+](C)(C)CCCCCC[N+](C)(C)CC(C)(C)CN1C(=O)c2cccc3cccc(c23)C1=O	> 100 µM
0.69 µM	CC(C)(CN1C(=O)c2cccc3cccc(c23)C1=O)C[N+](C)(C)CCCCCCBr	> 100 µM
0.3 µM	Cc1ccc(C(=O)Nc2ccc(S(=O)(=O)O)c3cc(S(=O)(=O)O)cc(S(=O)(=O)O)c23)cc1NC(=O)c1cccc(NC(=O)Nc2cccc(C(=O)Nc3cc(C(=O)Nc4ccc(S(=O)(=O)O)c5cc(S(=O)(=O)O)cc(S(=O)(=O)O)c45)ccc3C)c2)c1 [SURAMIN HEXASODIUM]	
0.03 µM	CN(CCCCCCN(C)CCCN1C(=O)c2cccc3cccc(c23)C1=O)CCCN1C(=O)c2cccc3cccc(c23)C1=O	3.24 µM
0.0027 µM	N=C(N)c1ccc(OCCCCCOc2ccc(C(=N)N)cc2)cc1 [PENTAMIDINE ISETHIONATE]	
